The term IC50 denotes the concentration that inhibits the measured activity by half.

In series [1] the test system is MRC-5 cells. In words: Effect of compounds on topotecan cytotoxicity, MRC-5 (EZ4U). In kind it is cell-based, human. The following applies: MRC-5, 10 μM compound, topotecan 1 to 10 μM. As for the experimental part: According the EZ4U test data the thiazolidine-2,4-diones were shown not to enhance the cytotoxic effect of topotecan at 10 μM (Figure 2C,D). […] It can be speculated that the decisive factor is the use of the thiazolidine-2,4-dione fragment as a central molecular scaffold, which is a pharmacophore for many targets. In particular, thiazolidine-2,4-diones are well-known for their antidiabetic, antitumor [20], and anti-inflammatory activities. Such promiscuity can lead to binding to a number of proteins/enzymes in cells other than TDP1.
Human colon adenocarcinoma HCT-116 and human lung fibroblast MRC-5 cell lines were provided by the Cell Culture Bank of the State Research Center for Virology and Biotechnology Vector, Novosibirsk, Russia. Cells were cultured in DMEM medium (Invitrogen) supplemented with 10% fetal bovine serum (FBS) (Invitrogen), penicillin (100 units/mL), and streptomycin (100 µg/mL) at 37 °C and 5% CO2 in a humid atmosphere. After the formation of a 30–50% monolayer, the tested compounds were added to the medium. Because the compounds are soluble in DMSO, we minimized the DMSO content in the culture medium. The volume of the added reagents was 1/100 of the total volume of the culture medium, and the amount of DMSO was 1% of the final volume. Control cells were grown in the presence of 1% DMSO. […]

For series [2], the target named is T1, Human recombinant TDP1 (Homo sapiens, UniProt Q9NUW8).
T1 construct: made in house
In words: Real-time oligonucleotide biosensor assay of TDP1 activity. Type of series: biochemical. The following applies: 1.5 nM TDP1, 50 nM biosensor, 26 °C, at least three experiments; read-out: TDP1 inhibitory activity IC50. On the procedure: The inhibiting activity of the compounds against TDP1 was investigated using a real-time oligonucleotide biosensor assay.
The biosensor (5′-[FAM] AAC GTC AGGGTC TTC C [BHQ]-3′) was synthesized in the Laboratory of Nucleic Acid Chemistry at the Institute of Chemical Biology and Fundamental Medicine (Novosibirsk, Russia) and was used for TDP1 enzyme activity real-time fluorescence detection. The reaction mixture (200 µL) contained a TDP1 reaction buffer (50 mM Tris-HCl, pH 8.0, 50 mM NaCl, and 7 mM β-mercaptoethanol), 50 nM oligonucleotide, varied concentrations of the tested compounds, and purified TDP1 in a final concentration of 1.5 nM. The recombinant TDP1 was purified to homogeneity by chromatography on Ni-chelating resin and phosphocellulose P11, as described, using plasmid pET 16B-TDP1, kindly provided by Dr. K.W. Caldecott (University of Sussex, United Kingdom).
The reaction mixtures were incubated at a constant temperature of 26 °C in a POLARstar OPTIMA fluorimeter (BMG LABTECH, GmbH, Ortenberg, Germany). Fluorescence intensity was measured (Ex485/Em520 nm) every 1 min for 10 min. The average values of the half maximal inhibitory concentration (IC50) were determined using a six-point concentration response curve and calculated using MARS Data Analysis 2.0 (BMG LABTECH). The 50% inhibitory concentration (IC50) was defined as the concentration of the compound that inhibited 50% of the enzyme activity, when compared to the untreated controls. At least three independent experiments were carried out to obtain the IC50 values.

T1 sequence (Q9NUW8 whole entry): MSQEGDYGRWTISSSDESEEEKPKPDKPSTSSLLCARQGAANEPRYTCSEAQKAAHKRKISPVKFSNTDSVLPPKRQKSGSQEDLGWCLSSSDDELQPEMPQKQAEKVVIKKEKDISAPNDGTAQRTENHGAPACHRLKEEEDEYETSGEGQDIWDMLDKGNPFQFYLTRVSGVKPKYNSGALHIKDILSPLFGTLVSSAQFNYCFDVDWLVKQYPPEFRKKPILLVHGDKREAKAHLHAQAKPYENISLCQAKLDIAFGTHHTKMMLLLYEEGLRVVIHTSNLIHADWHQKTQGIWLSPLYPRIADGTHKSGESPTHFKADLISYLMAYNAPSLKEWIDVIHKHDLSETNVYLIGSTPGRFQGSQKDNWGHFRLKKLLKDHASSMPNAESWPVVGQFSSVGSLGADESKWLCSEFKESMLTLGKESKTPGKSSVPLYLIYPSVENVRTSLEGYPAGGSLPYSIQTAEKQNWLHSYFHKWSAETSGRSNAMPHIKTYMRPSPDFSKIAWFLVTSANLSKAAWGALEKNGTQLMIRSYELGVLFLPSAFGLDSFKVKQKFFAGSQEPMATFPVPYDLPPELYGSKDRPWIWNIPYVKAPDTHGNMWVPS

Consider `CC1(C)[C@H]2CC=C(CCN3C(=O)S/C(=C\c4ccc(Br)s4)C3=O)[C@@H]1C2` [Compound 21b, (Z)-5-((5-bromothiophen-2-yl)methylene)-3-(2-((1R,5S)-6,6-dimethylbicyclo[3.1.1]hept-2-en-2-yl)ethyl)thiazolidine-2,4-dione], for which the “effect on the cytotoxic effect of topotecan” value in series [1] is “protects MRC-5 cells”. Also, the IC50 in series [2] was found to be 2500 ± 400 nM.

Values taken from paper PMC9964680, “Novel TDP1 Inhibitors: Disubstituted Thiazolidine-2,4-Diones Containing Monoterpene Moieties” (International Journal of Molecular Sciences, 2023).
